Article PMC8880098, “Synthesis, Antibacterial Evaluation, and Computational Studies of a Diverse Set of Linezolid Conjugates” (Pharmaceuticals, 2022)
Values after ≈ are worked out from the molar mass of the structure shown. Like-named read-outs stand apart in the source and are kept apart here.

Tests used:
[1] = system: Staphylococcus aureus ATCC 6538; experiment: microbe, parasite or virus in culture; set-up: species or system bacteria; Broth microdilution MIC in Mueller-Hinton broth, absorbance at 620 nm; conditions: ATCC6538, 24 h, read-out: Observed MIC, uM (S. aureus)
From the text: (§1) Antibacterial properties of the synthesized compounds (3a–k, 5a–f, 7a–c, 9a–c, 11a–f, 13 and 15) were screened against Gram-positive (Staphylococcus aureus ATCC 6538, Bacillus subtilis ATCC 6633) and Gram-negative (Pseudomonas aeruginosa ATCC 15,692 and Escherichia coli ATCC 47076) bacteria utilizing the standard technique. Linezolid was used as a standard reference/drug in the current study. The tested bacterial strains were obtained from MERCIN Center, Faculty of Agriculture, Ain Shams University, Cairo, Egypt. To determine the antibacterial activity, stock solutions of the tested compounds and standard reference were prepared with up to 100% DMSO and stored at […]. If necessary, the solutions were heated to 40–60 °C before testing to facilitate complete dissolution. Double distilled water was used in all dilutions prepared. […] A microdilution susceptibility test was used for MIC determination (Mueller–Hinton broth in 96-well plates) according to the CLSI (the Clinical and Laboratory Standards Institute, Malvern, PA, USA). The bacterial inoculum was adjusted to approximately 2.5–3 × 10^4 cells/mL in Mueller–Hinton broth and incubated in a ratio of 1:1 with the test derivatives in polystyrene 96-well flat-bottom microplates. Positive growth control (without test derivatives) and negative control (without bacteria) were included. The microplates were placed in an incubator set to 37 °C for 24 h. Absorbance was measured at 620 nm at the end of the incubation period. The cut-off level for follow-up studies was defined as a minimum of 90% inhibition of growth compared to the untreated sample. Experiments were conducted once in triplicate. For selected compounds, minimum inhibitory concentration (MIC) values were determined by dose–response experiments. Experiments were performed at least twice, in triplicate per concentration tested.

[2] = system: Bacillus subtilis ATCC 6633; experiment: microbe, parasite or virus in culture; set-up: species or system bacteria; Broth microdilution MIC in Mueller-Hinton broth, absorbance at 620 nm; conditions: ATCC6633, 24 h, read-out: Observed MIC, uM (B. subtilis)
From the text: as §1

[3] = system: Staphylococcus aureus ATCC 6538; experiment: Antibacterial MIC, microdilution susceptibility test (CLSI); type: cell-based; conditions: Staphylococcus aureus
From the text: (§2) The synthesized linezolid conjugates (3a–k, 5a–f, 7a–c, 9a–c, 11a–f, 13, and 15) were subjected for antimicrobial properties determination against Gram-positive (Staphylococcus aureus ATCC 6538, Bacillus subtilis ATCC 6633) and Gram-negative (Pseudomonas aeruginosa ATCC 15692, Escherichia coli ATCC 47076) bacteria by the standard technique.
(§3) Antibacterial properties of the synthesized compounds (3a–k, 5a–f, 7a–c, 9a–c, 11a–f, 13 and 15) were screened against Gram-positive (Staphylococcus aureus ATCC 6538, Bacillus subtilis ATCC 6633) and Gram-negative (Pseudomonas aeruginosa ATCC 15,692 and Escherichia coli ATCC 47076) bacteria utilizing the standard technique. Linezolid was used as a standard reference/drug in the current study. The tested bacterial strains were obtained from MERCIN Center, Faculty of Agriculture, Ain Shams University, Cairo, Egypt.
as §1, with “To” for “Antibacterial properties of the synthesized compounds (3a–k, 5a–f, 7a–c, 9a–c, 11a–f, 13 and 15) were screened against Gram-positive (Staphylococcus aureus ATCC 6538, Bacillus subtilis ATCC 6633) and Gram-negative (Pseudomonas aeruginosa ATCC 15,692 and Escherichia coli ATCC 47076) bacteria utilizing the standard technique. Linezolid was used as a standard reference/drug in the current study. The tested bacterial strains were obtained from MERCIN Center, Faculty of Agriculture, Ain Shams University, Cairo, Egypt. To”

[4] = system: Bacillus subtilis ATCC 6633; experiment: as above; type: cell-based; conditions: Bacillus subtilis
From the text: as §2, §3
as §1, with “To” for “Antibacterial properties of the synthesized compounds (3a–k, 5a–f, 7a–c, 9a–c, 11a–f, 13 and 15) were screened against Gram-positive (Staphylococcus aureus ATCC 6538, Bacillus subtilis ATCC 6633) and Gram-negative (Pseudomonas aeruginosa ATCC 15,692 and Escherichia coli ATCC 47076) bacteria utilizing the standard technique. Linezolid was used as a standard reference/drug in the current study. The tested bacterial strains were obtained from MERCIN Center, Faculty of Agriculture, Ain Shams University, Cairo, Egypt. To”

[5] = system: Pseudomonas aeruginosa ATCC 15692; experiment: as above; type: cell-based
From the text: as §2, §3
as §1, with “To” for “Antibacterial properties of the synthesized compounds (3a–k, 5a–f, 7a–c, 9a–c, 11a–f, 13 and 15) were screened against Gram-positive (Staphylococcus aureus ATCC 6538, Bacillus subtilis ATCC 6633) and Gram-negative (Pseudomonas aeruginosa ATCC 15,692 and Escherichia coli ATCC 47076) bacteria utilizing the standard technique. Linezolid was used as a standard reference/drug in the current study. The tested bacterial strains were obtained from MERCIN Center, Faculty of Agriculture, Ain Shams University, Cairo, Egypt. To”

[6] = system: Escherichia coli ATCC 47076; experiment: as above; type: cell-based
From the text: as §2, §3
as §1, with “To” for “Antibacterial properties of the synthesized compounds (3a–k, 5a–f, 7a–c, 9a–c, 11a–f, 13 and 15) were screened against Gram-positive (Staphylococcus aureus ATCC 6538, Bacillus subtilis ATCC 6633) and Gram-negative (Pseudomonas aeruginosa ATCC 15,692 and Escherichia coli ATCC 47076) bacteria utilizing the standard technique. Linezolid was used as a standard reference/drug in the current study. The tested bacterial strains were obtained from MERCIN Center, Faculty of Agriculture, Ain Shams University, Cairo, Egypt. To”

[7] = ATCC6538, 24 h, Mueller–Hinton broth, 37 °C, 24 h, read-out: MIC, μg/mL ± SE, S. Aureus (ATCC 6538)
[8] = ATCC6633, 24 h, Mueller–Hinton broth, 37 °C, 24 h, read-out: MIC, μg/mL ± SE, B. Subtilis (ATCC 6633)
[9] = ATCC15692, Mueller–Hinton broth, 37 °C, 24 h, read-out: MIC, μg/mL ± SE, P. Aeruginosa (ATCC 15692)
[10] = ATCC15692, value in parentheses, read-out: MIC (μmol), P. Aeruginosa (ATCC 15692) (converted)
[11] = ATCC47076, Mueller–Hinton broth, 37 °C, 24 h, read-out: MIC, μg/mL ± SE, E. Coli (ATCC 47076)
[12] = ATCC47076, value in parentheses, read-out: MIC (μmol), E. Coli (ATCC 47076) (converted)
[13] = ATCC6538, as quoted in running text, read-out: MIC against S. aureus
[14] = ATCC6633, as quoted in running text, read-out: MIC against B. subtilis

## O=C(N[C@@H](Cc1ccccc1)C(=O)NC[C@H]1CN(c2ccc(N3CCOCC3)c(F)c2)C(=O)O1)OCc1ccccc1 [Compound 3e, Benzyl ((S)-1-((((S)-3-(3-fluoro-4-morpholinophenyl)-2-oxooxazolidin-5-yl)methyl)amino)-1-oxo-3-phenylpropan-2-yl)carbamate]
other
  melting point: 120 to 122 °C
[1]
  MIC: 55.5 µM (≈ 32 µg/mL)
[2]
  MIC: 55.5 µM (≈ 32 µg/mL)
[3]; [7]
  MIC: 32 ± 2.2 µg/mL
[4]; [8]
  MIC: 32 ± 1.9 µg/mL
[5]; [9]
  MIC: 64 ± 2.1 µg/mL
[5]; [10]
  MIC: 111 µM
[6]; [11]
  MIC: 32 ± 1 µg/mL
[6]; [12]
  MIC: 55.5 µM

## CC(C)(C)OC(=O)NCC(=O)NC[C@H]1CN(c2ccc(N3CCOCC3)c(F)c2)C(=O)O1 [Compound 3f, Tert-butyl (S)-(2-(((3-(3-fluoro-4-morpholinophenyl)-2-oxooxazolidin-5-yl)methyl)amino)-2-oxoethyl)carbamate]
other
  melting point: 54 to 56 °C
[1]
  MIC: 70.7 µM (≈ 32 µg/mL)
[2]
  MIC: 17.7 µM (≈ 8 µg/mL)
[3]; [7]
  MIC: 32 ± 1.4 µg/mL
[4]; [8]
  MIC: 8 ± 0.4 µg/mL
[5]; [9]
  MIC: 32 ± 1.6 µg/mL
[5]; [10]
  MIC: 70.7 µM
[6]; [11]
  MIC: 32 ± 2.8 µg/mL
[6]; [12]
  MIC: 70.7 µM

## C[C@H](NC(=O)OC(C)(C)C)C(=O)NC[C@H]1CN(c2ccc(N3CCOCC3)c(F)c2)C(=O)O1 [Compound 3g, Tert-butyl ((S)-1-((((S)-3-(3-fluoro-4-morpholinophenyl)-2-oxooxazolidin-5-yl)methyl)amino)-1-oxopropan-2-yl)carbamate]
other
  melting point: 71 to 72 °C
[1]
  MIC: 68.6 µM (≈ 32 µg/mL)
[2]
  MIC: 68.6 µM (≈ 32 µg/mL)
[3]; [7]
  MIC: 32 ± 1.5 µg/mL
[4]; [8]
  MIC: 32 ± 2.4 µg/mL
[5]; [9]
  MIC: 32 ± 1.2 µg/mL
[5]; [10]
  MIC: 68.6 µM
[6]; [11]
  MIC: 32 ± 2.7 µg/mL
[6]; [12]
  MIC: 68.6 µM

## CC(C)(C)OC(=O)N[C@@H](Cc1ccccc1)C(=O)NC[C@H]1CN(c2ccc(N3CCOCC3)c(F)c2)C(=O)O1 [Compound 3j, Tert-butyl ((S)-1-((((S)-3-(3-fluoro-4-morpholinophenyl)-2-oxooxazolidin-5-yl)methyl)amino)-1-oxo-3-phenylpropan-2-yl)carbamate]
other
  melting point: 69 to 71 °C
[1]
  MIC: 118 µM (≈ 64 µg/mL)
[2]
  MIC: 59 µM (≈ 32 µg/mL)
[3]; [7]
  MIC: 64 ± 2.5 µg/mL
[4]; [8]
  MIC: 32 ± 1.3 µg/mL
[5]; [9]
  MIC: 64 ± 1.8 µg/mL
[5]; [10]
  MIC: 118 µM
[6]; [11]
  MIC: 32 ± 0.9 µg/mL
[6]; [12]
  MIC: 59 µM

## O=C(NC[C@H]1CN(c2ccc(N3CCOCC3)c(F)c2)C(=O)O1)c1ccccc1 [Compound 5a, (S)-N-((3-(3-Fluoro-4-morpholinophenyl)-2-oxooxazolidin-5-yl)methyl)benzamide]
other
  melting point: 174 to 176 °C
[1]
  MIC: 10 µM (≈ 4 µg/mL)
[2]
  MIC: 2.5 µM (≈ 1 µg/mL)
[3]; [7]
  MIC: 4 ± 0.2 µg/mL
[3]; [13]
  MIC: 9.34 to 10 µM
[4]; [8]
  MIC: 1 ± 0.1 µg/mL
[4]; [14]
  MIC: 2.33 to 2.5 µM
[5]; [9]
  MIC: 32 ± 0.8 µg/mL
[5]; [10]
  MIC: 80.1 µM
[6]; [11]
  MIC: 32 ± 1.6 µg/mL
[6]; [12]
  MIC: 80.1 µM

## CNc1ccc(C(=O)NC[C@H]2CN(c3ccc(N4CCOCC4)c(F)c3)C(=O)O2)cc1 [Compound 5e, (S)-N-((3-(3-Fluoro-4-morpholinophenyl)-2-oxooxazolidin-5-yl)methyl)-4-(methylamino) benzamide]
other
  melting point: 195 to 197 °C
[3]; [7]
  MIC: 4 ± 0.2 µg/mL
[3]; [13]
  MIC: 9.34 to 10 µM
[3]; ATCC6538, value in parentheses, read-out: MIC (μmol), S. Aureus (ATCC 6538) (converted)
  MIC: 9.34 µM
[4]; [8]
  MIC: 1 ± 0.1 µg/mL
[4]; [14]
  MIC: 2.33 to 2.5 µM
[4]; ATCC6633, value in parentheses, read-out: MIC (μmol), B. Subtilis (ATCC 6633) (converted)
  MIC: 2.33 µM
[5]; [9]
  MIC: 32 ± 2.2 µg/mL
[5]; [10]
  MIC: 74.7 µM
[6]; [11]
  MIC: 32 ± 1.6 µg/mL
[6]; [12]
  MIC: 74.7 µM
